Eleven compounds from patent US10604512B2, “3-(1H-indol-2-yl)-1H-indazoles and therapeutic uses thereof” (Samumed, LLC, priority 2015, dated 2020) can be followed below.

What all share (assay type): cell-based
The subject of one experiment is SW480 colon cancer cells. Kind of experiment: Cell viability assay (CellTiter-Blue) in SW480 colon cancer cells. To be noted: Homo sapiens, 96 h, four days; for EC50: CellTiter-Blue; for inhibition at 10 µM: given where EC50 >10 μM, read-out: percent inhibition at 10 μM. Summed up:
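4-day exposure, 37 °C/5% CO2; ~2×10^3 SW480 cells/well; 8-pt 1:3 curve, 10–0.0045 μM, duplicates vs DMSO controls. Resazurin→resorufin fluorescence readout, ~3 h. EC50 by nonlinear fit; if >10 μM, % inhibition at 10 μM reported.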
For orientation: Resazurin is reduced to fluorescent resorufin, in cell work by metabolically active cells.

Experiment [1] relates to Wnt activity (Sp5-Luc reporter, TCF/LEF binding sites) in SW480 colon carcinoma cells. Nature of the experiment: Screening assay for Wnt activity: Sp5-Luc reporter gene assay in stably transduced SW480 colon carcinoma cells. Conditions: Homo sapiens; for EC50: overnight incubation, 10-point curve from 10 μM. Summed up: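 SW480 cells stably transduced with a luciferase reporter driven by an Sp5 promoter of eight TCF/LEF sites were plated at 4,000 cells/well in 1% FBS medium. They were exposed overnight at 37° C to a 10-point 1:3 dilution series from 10 μM (0.1% DMSO). Luminescence was normalized to DMSO for four-parameter EC50, or percent inhibition at 10 μM.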
In general terms: A reporter such as luciferase makes a cellular process visible.

Experiment [2] relates to Primary human fibroblasts derived from IPF patients (LL29 cells) treated with TGF-β1. Kind of experiment: Inhibition of the fibrotic process: αSMA staining in TGF-β1-treated primary human fibroblasts from IPF patients (LL29 cells). To be noted: Fibroblast, 96 h; for EC50: % αSMA-positive LL29 cells, TGF-β1 20 ng/mL, 4 days; for inhibition at 10 µM: given where EC50 >10 μM, αSMA, LL29 cells, TGF-β1, 4 days, read-out: percent inhibition at 10 μM. Summed up:
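LL29 IPF-patient fibroblasts in 1% FBS stimulated with TGF-β1 (20 ng/mL) and compound (10 μM–1.87 nM, 0.1% DMSO) for 4 days at 37 °C. SYTOX-positive cells excluded; % αSMA-positive cells imaged, normalized to TGF-β1/DMSO wells; EC50 by nonlinear regression, else % inhibition at 10 μM.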

SMILES strings stand for the structures. Bounds are passed on as bounds.

What is called EC50 is the concentration giving half of the maximal effect. The low end stands for an effect from little substance, the high end for a need for much substance. As for `CN1CCN(c2cccc3[nH]c(-c4n[nH]c5ccc(-c6cncnc6)cc45)cc23)CC1` [Compound 251, 3-(4-(4-Methylpiperazin-1-yl)-1H-indol-2-yl)-5-(pyrimidin-5-yl)-1H-indazole], the EC50 was determined as 3.28 µM in the experiment on SW480 colon cancer cells, 1.42 µM in experiment [1] and 3.04 µM in experiment [2].
For orientation: inhibition means the share of the control response that was lost under treatment. For `CN1CCN(c2cccc3[nH]c(-c4n[nH]c5ccc(-c6cncc(CN7CCCCC7)c6)cc45)cc23)CC1` [Compound 239, 3-(4-(4-Methylpiperazin-1-yl)-1H-indol-2-yl)-5-(5-(piperidin-1-ylmethyl)pyridin-3-yl)-1H-indazole], the inhibition at 10 µM with SW480 colon cancer cells amounted to 51.7%; in experiment [2], 21.1%. The values for the EC50 (with SW480 colon cancer cells; in experiment [1]; in experiment [2]) were > 10 µM, 4.97 µM and > 10 µM, respectively.
Turning to `c1ccc(-c2cccc3[nH]c(-c4n[nH]c5ccc(-c6ccncc6)cc45)cc23)nc1` [Compound 158, 3-(4-(Pyridin-2-yl)-1H-indol-2-yl)-5-(pyridin-4-yl)-1H-indazole], in the experiment on SW480 colon cancer cells, the inhibition at 10 µM was 36.9%. Further, the EC50 was > 10 µM with SW480 colon cancer cells, 4.12 µM in experiment [1] and 0.627 µM in experiment [2].
Take `CS(=O)(=O)NCc1cc(F)cc(-c2cccc3[nH]c(-c4n[nH]c5ccc(-c6ccncc6)cc45)cc23)c1` [Compound 494, N-(3-Fluoro-5-(2-(5-(pyridin-4-yl)-1H-indazol-3-yl)-1H-indol-4-yl)benzyl) methane sulfonamide]: the values for the inhibition at 10 µM (in the experiment with SW480 colon cancer cells; in experiment [2]) were 22.3% and 10.4%, respectively. The EC50 is > 10 µM in the experiment with SW480 colon cancer cells, 3.9 µM in experiment [1] and > 10 µM in experiment [2].
Take `CC(C)CC(=O)Nc1cncc(-c2ccc3[nH]nc(-c4cc5c(-c6ccsc6)cccc5[nH]4)c3c2)c1` [Compound 282, 3-Methyl-N-(5-(3-(4-(thiophen-3-yl)-1H-indol-2-yl)-1H-indazol-5-yl)pyridin-3-yl)butanamide]: the figures for the EC50 (in the experiment with SW480 colon cancer cells; in experiment [1]; in experiment [2]) were 0.18 µM, 0.075 µM and > 10 µM, respectively. Besides, in experiment [2], the inhibition at 10 µM was 34.9%.
Consider `CCNCc1cncc(-c2ccc3[nH]nc(-c4cc5c(-c6ccccc6F)cccc5[nH]4)c3c2)c1` [Compound 62, N-((5-(3-(4-(2-Fluorophenyl)-1H-indol-2-yl)-1H-indazol-5-yl)pyridin-3-yl)methyl)ethanamine], for which the inhibition at 10 µM in the experiment with SW480 colon cancer cells came out at 44.5%. Moreover, the EC50 is > 10 µM in the experiment with SW480 colon cancer cells, 4.18 µM in experiment [1] and 7.64 µM in experiment [2].
In the case of `O=C(Cc1ccccc1)Nc1cncc(-c2ccc3[nH]nc(-c4cc5c(-c6ccncc6)cccc5[nH]4)c3c2)c1` [Compound 122, 2-Phenyl-N-(5-(3-(4-(pyridin-4-yl)-1H-indol-2-yl)-1H-indazol-5-yl)pyridin-3-yl)acetamide], the inhibition at 10 µM in the experiment with SW480 colon cancer cells was 7.8%; in experiment [1] (at 10 μM, given where EC50 >10 μM, read-out: percent inhibition at 10 μM) it was 45.5%; in experiment [2] it was 0%. Further, the EC50 (with SW480 colon cancer cells; in experiment [1]; in experiment [2]) was > 10 µM throughout.
As to `CCCC(=O)Nc1cncc(-c2ccc3[nH]nc(-c4cc5c(-c6ccc(F)cc6)cccc5[nH]4)c3c2)c1` [Compound 45, N-(5-(3-(4-(4-Fluorophenyl)-1H-indol-2-yl)-1H-indazol-5-yl)pyridin-3-yl)butyramide], the inhibition at 10 µM in the experiment with SW480 colon cancer cells came out at 5.3%. Moreover, the EC50 in the experiment on SW480 colon cancer cells was > 10 µM; in experiment [1], 0.475 µM; in experiment [2], 5.52 µM.
For `Nc1cncc(-c2ccc3[nH]nc(-c4cc5c(-c6ccccn6)cccc5[nH]4)c3c2)c1` [Compound 143, 5-(3-(4-(Pyridin-2-yl)-1H-indol-2-yl)-1H-indazol-5-yl)pyridin-3-amine], the EC50 with SW480 colon cancer cells worked out at 0.748 µM; in experiment [1], 0.06 µM; in experiment [2], 0.082 µM.
`c1ccc(-c2cccc3[nH]c(-c4n[nH]c5ccc(-c6cncnc6)cc45)cc23)nc1` [Compound 167, 3-(4-(Pyridin-2-yl)-1H-indol-2-yl)-5-(pyrimidin-5-yl)-1H-indazole]: in the experiment with SW480 colon cancer cells, the inhibition at 10 µM is 10.9%. Moreover, the EC50 with SW480 colon cancer cells is > 10 µM; in experiment [1], 1.22 µM; in experiment [2], 1.21 µM.
With `O=C(Nc1cncc(-c2ccc3[nH]nc(-c4cc5ncccc5[nH]4)c3c2)c1)c1ccccc1` [Compound 515, N-(5-(3-(1H-Pyrrolo[3,2-b]pyridin-2-yl)-1H-indazol-5-yl)pyridin-3-yl) benzamide], the EC50 in the experiment with SW480 colon cancer cells was 1.09 µM; in experiment [1] it was 0.908 µM; in experiment [2], > 10 µM. The inhibition at 10 µM in experiment [2] came out at 0%.
